The values below come from article PMC8972196, “A Set of Experimentally Validated Decoys for the Human CC Chemokine Receptor 7 (CCR7) Obtained by Virtual Screening” (Frontiers in Pharmacology, 2022).

The assay has as its target T1, human CCR7 (Homo sapiens, UniProt P32248).
T1 construct: expressed in transfected cells
T1 sequence (P32248 25-378): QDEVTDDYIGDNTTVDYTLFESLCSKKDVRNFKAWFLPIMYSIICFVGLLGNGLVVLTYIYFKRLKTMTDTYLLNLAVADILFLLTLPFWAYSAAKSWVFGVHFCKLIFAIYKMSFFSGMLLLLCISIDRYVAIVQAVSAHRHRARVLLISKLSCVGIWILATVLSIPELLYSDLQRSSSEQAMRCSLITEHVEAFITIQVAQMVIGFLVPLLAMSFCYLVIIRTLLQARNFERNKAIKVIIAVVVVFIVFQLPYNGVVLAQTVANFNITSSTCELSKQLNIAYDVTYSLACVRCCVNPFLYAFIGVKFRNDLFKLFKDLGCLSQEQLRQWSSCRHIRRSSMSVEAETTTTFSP
Put plainly: CCL19-induced calcium mobilization assay, U87.CD4 cells expressing CCR7. Type of assay: cell-based. Conditions: for Decoy – 0 Active – 1: classification of tested compounds as decoy or active. The method in brief:
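U87.CD4 cells stably expressing human CCR7, CXCR2 or CCR5 were seeded at 20,000 cells/well and incubated overnight at 37°C and 5% CO2. Cells were then incubated for 45 min at room temperature in the dark before calcium responses were recorded. CCR7 responses were induced with CCL19 and CXCR2 responses with CXCL8.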

Where [1] appears, read: CCL19-induced calcium signaling, read-out: IC50 [μM] block CCL19 induced calcium signaling.

The structures appear in SMILES notation. Like-named read-outs stand apart in the source and are kept apart here.

Turning to `CS(=O)(=O)c1ccc(-c2cccc(NC(=O)[C@H]3CCCO3)c2)nn1` [C101, CS(=O)(=O)c1ccc(-c2cccc(NC(=O)[C@H]3CCCO3)c2)nn1], the “Decoy – 0 Active – 1” value came out at 0. Under setting [1], the IC50 is above 50 µM.
On to `CCN(CC)S(=O)(=O)c1ccc2c(c1)cc(C(=O)NCc1ccc(C)o1)n2C` [C102, CCN(CC)S(=O)(=O)c1ccc2c(c1)cc(C(=O)NCc1ccc(C)o1)n2C], for which the “Decoy – 0 Active – 1” value stood at 0. Further, the IC50 under setting [1] was above 50 µM.
The matching figures for `CCOC(=O)c1sc2ncnc(NC[C@H]3CCCO3)c2c1C` [C103, CCOC(=O)c1sc2ncnc(NC[C@H]3CCCO3)c2c1C]: 0 and above 50 µM.
As for `CCOC[C@H]1CCN(C(=O)Nc2cccn(CC(F)(F)F)c2=O)C1` [C104, CCOC[C@H]1CCN(C(=O)Nc2cccn(CC(F)(F)F)c2=O)C1], the “Decoy – 0 Active – 1” value was 0. Besides, the IC50 under setting [1] is above 50 µM.
For `CN(C)C(=O)c1ccc(CN2CCCC[C@H]2CCn2cccn2)o1` [C105, CN(C)C(=O)c1ccc(C[N@H+]2CCCC[C@H]2CCn2cccn2)o1], the “Decoy – 0 Active – 1” value came out at 0. Further, the IC50 under setting [1] is above 50 µM.
The matching figures for `Cc1ccc(NC(=O)CN(C)C[C@@H]2CCCO2)cc1[N+](=O)[O-]` [C106, Cc1ccc(NC(=O)C[N@@H+](C)C[C@@H]2CCCO2)cc1[N+](=O)[O-]]: 0 and above 50 µM.
In the same order, the values of `CN1CC[C@H](NC(=O)CN[C@@H](c2ccccc2)C(F)(F)F)C1=O` [C107, CN1CC[C@H](NC(=O)CN[C@@H](c2ccccc2)C(F)(F)F)C1=O] are 0 and above 50 µM.
Turning to `C[C@@H](CNC(=O)N[C@H]1CCO[C@@H](c2ccccc2)C1)c1ccsc1` [C108, C[C@@H](CNC(=O)N[C@H]1CCO[C@@H](c2ccccc2)C1)c1ccsc1], the “Decoy – 0 Active – 1” value is listed as 0. Besides, under setting [1], the IC50 was above 50 µM.
The matching figures for `C[C@@H](CNC(=O)N[C@H]1CCO[C@@H](C2CC2)C1)c1ccsc1` [C109, C[C@@H](CNC(=O)N[C@H]1CCO[C@@H](C2CC2)C1)c1ccsc1]: 0 and above 50 µM.
With `CN(C)C(=O)c1cccc(CN2CCC[C@@H]2C[C@H](O)c2cnn(C)c2)c1` [C110, CN(C)C(=O)c1cccc(C[N@@H+]2CCC[C@@H]2C[C@H](O)c2cnn(C)c2)c1], the “Decoy – 0 Active – 1” value is 0. The IC50 under setting [1] was above 50 µM.
The matching figures for `CN(C)C(=O)c1cccc(N[C@H]2CCCN(Cc3cccc(O)c3)C2)n1` [C111, CN(C)C(=O)c1cccc(N[C@H]2CCC[N@H+](Cc3cccc(O)c3)C2)n1]: 0 and above 50 µM.
For `CC(C)[C@@H](NC(=O)CCN1CCCCCC1=O)c1ccccc1` [C112, CC(C)[C@@H](NC(=O)CCN1CCCCCC1=O)c1ccccc1], the “Decoy – 0 Active – 1” value turned out to be 0. The IC50 under setting [1] is above 50 µM.
As to `Cc1cnc([C@@H](C)CNC(=O)Nc2ccc3c(c2)S(=O)(=O)CC3)s1` [C113, Cc1cnc([C@@H](C)CNC(=O)Nc2ccc3c(c2)S(=O)(=O)CC3)s1], the “Decoy – 0 Active – 1” value is given as 0. Further, under setting [1], the IC50 is above 50 µM.
As for `C[C@H](c1ccccc1)[C@@H](C)NC(=O)N[C@H]1CCN(C)C1=O` [C114, C[C@@H](NC(=O)N[C@H]1CCN(C)C1=O)[C@H](C)c1ccccc1], the “Decoy – 0 Active – 1” value stood at 0. Also, the IC50 under setting [1] was above 50 µM.
With `CNC(=O)c1cccc(NC(=O)N[C@H](C)Cc2ccc(C)s2)c1C` [C115, CNC(=O)c1cccc(NC(=O)N[C@H](C)Cc2ccc(C)s2)c1C], the IC50 was above 50 µM and the “Decoy – 0 Active – 1” value turned out to be 0.
In the case of `C[C@@H]1CCN(Cc2ccccc2)C[C@H]1Nc1nccc(C(N)=O)c1[N+](=O)[O-]` [C116, C[C@@H]1CC[N@H+](Cc2ccccc2)C[C@H]1Nc1nccc(C(N)=O)c1[N+](=O)[O-]], the “Decoy – 0 Active – 1” value was determined as 0. Further, the IC50 under setting [1] was above 50 µM.
In the same order, the values of `C[C@@H]1CCN(Cc2ccccc2)C[C@H]1Nc1ccc([N+](=O)[O-])c(C(N)=O)c1` [C117, C[C@@H]1CC[N@H+](Cc2ccccc2)C[C@H]1Nc1ccc([N+](=O)[O-])c(C(N)=O)c1] are 0 and above 50 µM.
`C[C@@H](CNC(=O)N[C@H]1CCC[C@@H](S(C)(=O)=O)C1)c1cccs1` [C118, C[C@@H](CNC(=O)N[C@H]1CCC[C@@H](S(C)(=O)=O)C1)c1cccs1]: the “Decoy – 0 Active – 1” value came out at 0. Besides, the IC50 under setting [1] is above 50 µM.
The matching figures for `C[C@@H](CNC(=O)Nc1ccnc(C(=O)N(C)C)c1)c1cccs1` [C119, C[C@@H](CNC(=O)Nc1ccnc(C(=O)N(C)C)c1)c1cccs1]: 0 and above 50 µM.
Turning to `Cc1ccc(N[C@H]2CS(=O)(=O)C[C@H]2OC(=O)c2ccccc2)cc1` [C120, Cc1ccc(N[C@H]2CS(=O)(=O)C[C@H]2OC(=O)c2ccccc2)cc1], the “Decoy – 0 Active – 1” value is reported as 0. Moreover, the IC50 under setting [1] was above 50 µM.
The matching figures for `Cc1cccc(N[C@H]2CS(=O)(=O)C[C@H]2OC(=O)c2ccccc2)c1` [C121, Cc1cccc(N[C@H]2CS(=O)(=O)C[C@H]2OC(=O)c2ccccc2)c1]: 0 and above 50 µM.
With `O=S1(=O)C[C@H](Nc2ccc(Cl)cc2)[C@H](NCc2ccccc2)C1` [C122, O=S1(=O)C[C@@H](NCc2ccccc2)[C@@H](Nc2ccc(Cl)cc2)C1], the “Decoy – 0 Active – 1” value came out at 0. Also, the IC50 under setting [1] was above 50 µM.
In the same order, the values of `O=C(O[C@@H]1CS(=O)(=O)C[C@@H]1Nc1ccccc1)c1ccccc1` [C123, O=C(O[C@@H]1CS(=O)(=O)C[C@@H]1Nc1ccccc1)c1ccccc1] are 0 and above 50 µM.
The matching figures for `CN(Cc1ccccc1N[C@H]1CCN(C)C1=O)C(=O)c1cccs1` [C124, CN(Cc1ccccc1N[C@H]1CCN(C)C1=O)C(=O)c1cccs1]: 0 and above 50 µM.
In the same order, the values of `CCOC(=O)[C@H](NCC(=O)Nc1cccc(C(=O)N(C)C)c1)C(C)C` [C125, CCOC(=O)[C@H]([NH2+]CC(=O)Nc1cccc(C(=O)N(C)C)c1)C(C)C] are 0 and above 50 µM.
For the molecule `CNC(=O)c1cccc(NC(=O)NCC(C)(C)c2cccs2)c1C` [C126, CNC(=O)c1cccc(NC(=O)NCC(C)(C)c2cccs2)c1C], the “Decoy – 0 Active – 1” value turned out to be 0. The IC50 under setting [1] was above 50 µM.
The matching figures for `CN(C)C(=O)c1cccc(NC(=O)NCCC2=CCCCC2)c1` [C127, CN(C)C(=O)c1cccc(NC(=O)NCCC2=CCCCC2)c1]: 0 and above 50 µM.
The matching figures for `CN(C)C(=O)Cn1cccc(NC(=O)CCC(C)(C)c2ccccc2)c1=O` [C128, CN(C)C(=O)Cn1cccc(NC(=O)CCC(C)(C)c2ccccc2)c1=O]: 0 and above 50 µM.
In the same order, the values of `CN(C)C(=O)c1cc(NC(=O)NCC(C)(C)c2ccccc2)ccn1` [C129, CN(C)C(=O)c1cc(NC(=O)NCC(C)(C)c2ccccc2)ccn1] are 0 and above 50 µM.
With `C[S@+]([O-])c1cccc(NC(=O)NCC2(c3cccc(F)c3)CC2)c1` [C130, C[S@](=O)c1cccc(NC(=O)NCC2(c3cccc(F)c3)CC2)c1], the “Decoy – 0 Active – 1” value came out at 0. The IC50 under setting [1] is above 50 µM.
The matching figures for `Cc1cccc2c(=O)n(CCC(=O)N[C@@H](c3ccccc3)C(C)C)cnc12` [C131, Cc1cccc2c(=O)n(CCC(=O)N[C@@H](c3ccccc3)C(C)C)cnc12]: 0 and above 50 µM.
The matching figures for `CC[C@@H](NC(=O)CCn1ccccc1=O)c1cc(F)ccc1F` [C132, CC[C@@H](NC(=O)CCn1ccccc1=O)c1cc(F)ccc1F]: 0 and above 50 µM.
In the same order, the values of `C[C@H](c1ccccc1)N(C)CC(=O)Nc1cccc(C(=O)N(C)C)c1` [C133, C[C@H](c1ccccc1)[N@@H+](C)CC(=O)Nc1cccc(C(=O)N(C)C)c1] are 0 and above 50 µM.
For `COC[C@@H](NC1=NS(=O)(=O)c2ccccc21)c1ccc(C)o1` [C134, COC[C@@H](NC1=NS(=O)(=O)c2ccccc21)c1ccc(C)o1], the “Decoy – 0 Active – 1” value is given as 0. For the same molecule, under setting [1], the IC50 was above 50 µM.
The matching figures for `COc1ccc([N+](=O)[O-])c(C(=O)N[C@@H](c2ncccc2C)C(C)C)c1` [C135, COc1ccc([N+](=O)[O-])c(C(=O)N[C@@H](c2ncccc2C)C(C)C)c1]: 0 and above 50 µM.
Take `Cc1cccc([C@H](NC(=O)c2cc(-c3ccccc3F)n[nH]2)C2CC2)n1` [C136, Cc1cccc([C@H](NC(=O)c2cc(-c3ccccc3F)n[nH]2)C2CC2)n1]: the “Decoy – 0 Active – 1” value amounted to 0. Moreover, under setting [1], the IC50 is above 50 µM.
`CC[C@@H](NS(=O)(=O)NCc1ccccc1)c1cc(C)ccn1` [C137, CC[C@@H](NS(=O)(=O)NCc1ccccc1)c1cc(C)ccn1]: the “Decoy – 0 Active – 1” value was found to be 0. Under setting [1], the IC50 was above 50 µM.
In the same order, the values of `Cc1cccnc1[C@H](N[C@H]1CCN(CC(F)(F)F)C1=O)C(C)C` [C138, Cc1cccnc1[C@H]([NH2+][C@H]1CCN(CC(F)(F)F)C1=O)C(C)C] are 0 and above 50 µM.
The matching figures for `Cc1ocnc1C(=O)N[C@@H]1CC(=O)N(Cc2ccc(F)cc2)C1` [C139, Cc1ocnc1C(=O)N[C@@H]1CC(=O)N(Cc2ccc(F)cc2)C1]: 0 and above 50 µM.
